Results on 16 compounds are retold here after patent publication US9549917B2, “Heterocyclic-substituted benzofuran derivatives and methods of use thereof for the treatment of viral diseases” (priority 2011, dated 2017).

One experiment has as its system HCV replicon genotype 1b. Briefly: HCV replicon assay, genotype 1b (cell ELISA for NS3/4A). The format is cell-based. Particulars: Hepatitis C virus, 96 h, read-out: 1b IC50 (nM). The procedure:
(§1) Measurement of inhibition by compounds was performed using the HCV replicon system. Several different replicons encoding different HCV genotypes or mutations were used. In addition, potency measurements were made using different formats of the replicon assay, including different ways of measurements and different plating formats. See Jan M. Vrolijk et al., A replicons-based bioassay for the measurement of interferons in patients with chronic hepatitis C, 110 J. V[…] 201 (2003); Steven S. Carroll et al., Inhibition of Hepatitis C Virus RNA Replication by 2′-Modified Nucleoside Analogs, 278(14) J. BIOLOGICAL CHEMISTRY 11979 (2003). However, the underlying principles are common to all of these determinations, and are outlined below.
(§2) Stable neomycin phosphotransferase encoding replicons-harboring cell lines were used, so all cell lines were maintained under G418 selection prior to the assay. Potency was determined using a cell ELISA assay with an antibody to the replicons encoded NS3/4a protease. See Caterina Trozzi et al., In Vitro Selection and Characterization of Hepatitis C Virus Serine Protease Variants Resistant to an Active-Site Peptide Inhibitor, 77(6) J. Virol. 3669 (2003). To initiate an assay, replicon cells were plated in the presence of a dilution series of test compound in the absence of G418. Typically, the assays were performed in a 96-well plate formate for manual operation, or a 384-well plate format for automated assay. Replicon cells and compound were incubated for 96 hours. At the end of the assay, cells were washed free of media and compound, and the cells were then lysed. RNA was quantified indirectly through detection of replicon-encoded NS3/4A protein levels, through an ELISA-based assay with an antibody specific for NS3/4A. IC50 determinations were calculated as a percentage of a DMSO control by fitting the data to a four-parameter fit function and the data obtained is provided in the table below.
(§3) Data for selected compounds of the present invention was obtained for genotypes 1a and 1b using this method and is provided in the table below: […]
For orientation: In antiviral work, replicon cells carry a viral genome segment that copies itself.

The subject of a further experiment is HCV replicon genotype 1a. Briefly: HCV replicon assay, genotype 1a (cell ELISA for NS3/4A). The format is cell-based. Particulars: Hepatitis C virus, 96 h, read-out: 1a IC50 (nM). The protocol: as §1, §2, §3

By IC50 is commonly meant the midpoint of a concentration-inhibition curve. For `CNC(=O)c1c(-c2ccc(F)cc2)oc2cc(N(C)S(C)(=O)=O)c(-c3cnc(OC)c(-c4nc5c(F)cccc5o4)c3)cc12` [Compound 1, 5-(5-(4-fluorobenzo[d]oxazol-2-yl)-6-methoxypyridin-3-yl)-2-(4-fluorophenyl)-N-methyl-6-(N-methylmethylsulfonamido)benzofuran-3-carboxamide], the IC50 in the experiment with HCV replicon genotype 1b is 0.6 nM; with HCV replicon genotype 1a, 0.9 nM.

Consider `CNC(=O)c1c(-c2ccc(F)cc2)oc2cc(N(C)S(C)(=O)=O)c(-c3cncc(-c4nc5c(F)cccc5o4)c3)cc12` [Compound 2], for which the concentration for half-maximal inhibition (IC50) came out at 0.8 nM in the experiment on HCV replicon genotype 1b and 0.3 nM in the experiment on HCV replicon genotype 1a.

As to `CNC(=O)c1c(-c2ccc(F)cc2)oc2cc(N(C)S(C)(=O)=O)c(-c3ccnc(-c4nc5c(F)cccc5o4)c3)cc12` [Compound 9], the IC50 in the experiment with HCV replicon genotype 1b is 1.3 nM; in the experiment with HCV replicon genotype 1a it was 0.6 nM.

`CNC(=O)c1c(-c2ccc(F)cc2)oc2cc(N(C)S(C)(=O)=O)c(-c3cc(-c4nc5c(F)cccc5o4)c(F)cn3)cc12` [Compound 13]: the figures for the IC50 in the experiment with HCV replicon genotype 1b and in the experiment on HCV replicon genotype 1a were 1.4 nM and 0.7 nM, respectively.

Take `CNC(=O)c1c(-c2ccc(F)cc2)oc2cc(N(C)S(C)(=O)=O)c(-c3cncc(-c4nc5ccccc5s4)c3)cc12` [Compound 62]: the IC50 with HCV replicon genotype 1b is 1.2 nM; in the experiment with HCV replicon genotype 1a, 2 nM.

Turning to `CNC(=O)c1c(-c2ccc(F)cc2)oc2cc(N(C)S(C)(=O)=O)c(-c3cncc(-c4nc5c(s4)CCCC5)c3)cc12` [Compound 82], the figures for the 50% inhibitory concentration (IC50) in the experiment with HCV replicon genotype 1b and in the experiment on HCV replicon genotype 1a were 1.1 nM and 0.8 nM, respectively.

As to `CNC(=O)c1c(-c2ccc(F)cc2)oc2cc(N(C)S(C)(=O)=O)c(-c3cnc(OC)c(-c4nc5c(o4)CCCC5(F)F)c3)cc12` [Compound 94], the IC50 was found to be 1.9 nM in the experiment on HCV replicon genotype 1b and 0.8 nM in the experiment with HCV replicon genotype 1a.

With `CNC(=O)c1c(-c2ccc(F)cc2)oc2cc(N(C)S(C)(=O)=O)c(-c3cc(-c4nc5c(o4)CCCC5(F)F)ccn3)cc12` [Compound 95], the concentration for half-maximal inhibition (IC50) in the experiment on HCV replicon genotype 1b worked out at 1.1 nM; in the experiment with HCV replicon genotype 1a, 0.9 nM.

As for `CNC(=O)c1c(-c2ccc(F)cc2)oc2cc(N(C)S(C)(=O)=O)c(-c3cc(-c4cc5ccccc5[nH]4)ncn3)cc12` [Compound 108, 5-(6-(1H-indol-2-yl)pyrimidin-4-yl)-2-(4-fluorophenyl)-N-methyl-6-(N-methylmethylsulfonamido)benzofuran-3-carboxamide], the IC50 with HCV replicon genotype 1b came out at 1.2 nM; with HCV replicon genotype 1a it was 0.7 nM.

On to `CNC(=O)c1c(-c2ccc(F)cc2)oc2cc(N(C)S(C)(=O)=O)c(-c3ccnc(-c4cc5ccccc5[nH]4)c3)cc12` [Compound 109], for which the 50% inhibitory concentration (IC50) in the experiment with HCV replicon genotype 1b was found to be 1 nM; with HCV replicon genotype 1a, 0.4 nM.

On to `CNC(=O)c1c(-c2ccc(F)cc2)oc2cc(N(C)S(C)(=O)=O)c(-c3cncc(-c4cc5ccccc5[nH]4)n3)cc12` [Compound 113], for which the IC50 turned out to be 0.8 nM in the experiment on HCV replicon genotype 1b and 0.3 nM in the experiment with HCV replicon genotype 1a.

Take `CNC(=O)c1c(-c2ccc(F)cc2)oc2cc(N(C)S(C)(=O)=O)c(-c3cc(-c4cc5c(F)cccc5[nH]4)ncn3)cc12` [Compound 119]: the half-maximal inhibitory concentration (IC50) in the experiment on HCV replicon genotype 1b is 1.5 nM; in the experiment with HCV replicon genotype 1a it was 0.7 nM.

On to `CNC(=O)c1c(-c2ccc(F)cc2)oc2cc(N(C)S(C)(=O)=O)c(-c3cncc(-c4cc5c(F)cccc5[nH]4)n3)cc12` [Compound 121], for which the half-maximal inhibitory concentration (IC50) stood at 1.2 nM in the experiment on HCV replicon genotype 1b and 0.8 nM with HCV replicon genotype 1a.

As to `CNC(=O)c1c(-c2ccc(F)cc2)oc2cc(N(C)S(C)(=O)=O)c(-c3cncc(-c4cc5cccc(F)c5[nH]4)n3)cc12` [Compound 139], the 50% inhibitory concentration (IC50) in the experiment on HCV replicon genotype 1b and in the experiment on HCV replicon genotype 1a was 0.8 nM in each case.

With `CNC(=O)c1c(-c2ccc(F)cc2)oc2cc(N(C)S(C)(=O)=O)c(-c3cc(-c4cc5ccccc5[nH]4)nc(OC)n3)cc12` [Compound 150, 5-(6-(1H-indol-2-yl)-2-methoxypyrimidin-4-yl)-2-(4-fluorophenyl)-N-methyl-6-(N-methylmethylsulfonamido)benzofuran-3-carboxamide], the IC50 in the experiment with HCV replicon genotype 1b was determined as 5.1 nM; in the experiment with HCV replicon genotype 1a, 3.2 nM.

Regarding `CNC(=O)c1c(-c2ccc(F)cc2)oc2cc(N(C)S(C)(=O)=O)c(-c3cc(-c4cc5ccccc5[nH]4)nc(C#N)n3)cc12` [Compound 151], the IC50 in the experiment with HCV replicon genotype 1b worked out at 3.7 nM; with HCV replicon genotype 1a, 7.7 nM.
